Measured values taken from patent US20240228458A1, “PYRIMIDINE DERIVATIVE HAVING PROTEIN KINASE INHIBITORY ACTIVITY, AND THERAPEUTIC PHARMACEUTICAL COMPOSITION COMPRISING SAME” (THERAPEX CO., LTD., priority 2021, published 2024).

Key:
Format in all cases: cell-based
[1] = tested on: Ba/F3 cells expressing del19/T790M/C797S (EGFR-DTC); experiment: Growth inhibition (GI50) of Ba/F3 cells expressing del19/T790M/C797S (EGFR-DTC), Celltiter glo; details: Mus musculus, BaF3, 72 h
Outline: (§1)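 Viable-cell luminescence (CellTiter-Glo) after 72 h compound exposure at 37 °C, 5% CO2 gave GI50 (μM, 50% growth inhibition). Compounds were 4-fold serial dilutions, 10 points, from a 2 mM stock, 0.5% DMSO, added 4 h after plating EGFR-variant Ba/F3 cells at 100,000 cells/ml.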

[2] = tested on: Ba/F3 cells expressing L858R/T790M (EGFR-LT); experiment: Growth inhibition (GI50) of Ba/F3 cells expressing L858R/T790M (EGFR-LT), Celltiter glo; details: Mus musculus, BaF3, 72 h
Method: (§2) In this experimental example, a determination was made as to whether the compounds prepared in Examples 1-283 have the ability to inhibit the growth of Ba/F3 cells expressing EGFR-wt, del19/T790M/C797S (EGFR-DTC), L858R/T790M/C797S (EGFR-LTC), del19/T790M (EGFR-DT), and L858R/T790M (EGFR-LT) variants.
(§3) The parental Ba/F3 cell line is a population of cells that are not introduced with EGFR variants. Specifically, 100 μl of a cell line expressing each variant was plated in a 96-well plate at a density of 100,000 cells/ml. 10-point, 4-fold serial dilutions of each compound were prepared, starting at 2 mM. After 4 h, 0.5 μl of the compound (0.5% DMSO) was added, followed by incubation at 37° C. and 5% CO2 for 72 h. After incubation, the number of viable cells was measured using a Celltiter glo assay kit (Promega) and the GI50 of the compound was determined. The term “GI50” refers to the molar concentration (μM) of the compound required for 50% growth inhibition of cells.

[3] = tested on: Ba/F3 cells expressing L858R/T790M/C797S (EGFR-LTC); experiment: Growth inhibition (GI50) of Ba/F3 cells expressing L858R/T790M/C797S (EGFR-LTC), Celltiter glo; details: Mus musculus, BaF3, 72 h
Outline: as §1

[4] = tested on: parental Ba/F3 cell line; experiment: Growth inhibition (GI50) of the parental Ba/F3 cell line (not introduced with EGFR variants), Celltiter glo; details: Mus musculus, BaF3, 72 h, parental Ba/F3 cells
Outline: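 Parental Ba/F3 cells (100,000 cells/ml) were treated with 10-point, 4-fold compound dilutions (0.5% DMSO; top stock 2 mM) for 72 h at 37 °C, 5% CO2. Viability was read by CellTiter-Glo; GI50 is the concentration (μM) giving 50% growth inhibition.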

[5] = tested on: Ba/F3 cells expressing del19/T790M (EGFR-DT); experiment: Growth inhibition (GI50) of Ba/F3 cells expressing del19/T790M (EGFR-DT), Celltiter glo; details: Mus musculus, BaF3, 72 h
Method: as §2, §3

[6] = tested on: Ba/F3 cells expressing EGFR-wt; experiment: Growth inhibition (GI50) of Ba/F3 cells expressing EGFR-wt, Celltiter glo; details: Mus musculus, BaF3, 72 h
Outline: as §1

GI50 [1] [nM] | GI50 [2] [nM] | GI50 [3] [nM] | GI50 [5] [nM] | GI50 [6] [nM] | Compound | GI50 [4] [nM]
100 to 500 | 2000 to 10000 | 2000 to 10000 | 2000 to 10000 | 2000 to 10000 | COc1cc(N2CCC(N3CCCN(C)CC3)CC2)c(Cl)cc1Nc1ncc(Cl)c(Nc2cc(Cl)ccc2NS(C)(=O)=O)n1 [Example 163, N-(4-chloro-2-((5-chloro-2-((5-chloro-2-methoxy-4-(4-(4-methyl-1,4-diazepan-1-yl)piperidin-1-yl)phenyl)amino)pyrimidin-4-yl)amino)phenyl)methanesulfonamide] | > 10000
500 to 2000 | 500 to 2000 | 500 to 2000 | 500 to 2000 | 500 to 2000 | COc1nc(N2CCN(C(C)=O)CC2)ccc1Nc1ncc(Cl)c(Nc2ccc(F)cc2NS(C)(=O)=O)n1 [Example 19, N-(2-((2-((6-(4-acetylpiperazin-1-yl)-2-methoxypyridin-3-yl)amino)-5-chloropyrimidin-4-yl)amino)-5-fluorophenyl)methanesulfonamide] | 2000 to 10000
1 to 25 | 1 to 25 | 1 to 25 | 1 to 25 | 100 to 500 | COc1cc(N2CCC(N3CCN(C)CC3)CC2)c(Cl)cc1Nc1ncc(Br)c(Nc2cc(Cl)ccc2NS(C)(=O)=O)n1 [Example 88, N-(2-((5-bromo-2-((5-chloro-2-methoxy-4-(4-(4-methylpiperazin-1-yl)piperidin-1-yl)phenyl)amino)pyrimidin-4-yl)amino)-4-chlorophenyl)methanesulfonamide] | 500 to 2000
25 to 100 | 1 to 25 | 25 to 100 | 1 to 25 | 100 to 500 | COc1cc(N2CCC(N3CCCN(C)CC3)CC2)c(Cl)cc1Nc1ncc(Cl)c(Nc2cc3c(cc2N(C)S(C)(=O)=O)CCO3)n1 [Example 264, N-(6-((5-chloro-2-((5-chloro-2-methoxy-4-(4-(4-methyl-1,4-diazepan-1-yl)piperidin-1-yl)phenyl)amino)pyrimidin-4-yl)amino)-2,3-dihydrobenzofuran-5-yl)-N-methylmethanesulfonamide] | 2000 to 10000
> 10000 | 2000 to 10000 | > 10000 | 2000 to 10000 | > 10000 | Cc1cc(Nc2ncc(Cl)c(Nc3ccc4c(c3)NCC4)n2)c(Cl)cc1N1CCC(N2CCN(C)CC2)CC1 [Example 277] | 2000 to 10000
25 to 100 | 25 to 100 | 100 to 500 | 1 to 25 | 500 to 2000 | COc1ccc(NS(C)(=O)=O)c(Nc2nc(Nc3cc(Cl)c(N4CCC(N5CCCN(C)CC5)CC4)cc3OC)ncc2Cl)c1 [Example 229, N-(2-((5-chloro-2-((5-chloro-2-methoxy-4-(4-(4-methyl-1,4-diazepan-1-yl)piperidin-1-yl)phenyl)amino)pyrimidin-4-yl)amino)-4-methoxyphenyl)methanesulfonamide] | 2000 to 10000
1 to 25 | 1 to 25 | 1 to 25 | 1 to 25 | 500 to 2000 | COc1cc(N2CCC(N3CCN(C)CC3)CC2)c(Br)cc1Nc1ncc(Cl)c(Nc2cc3c(cc2NS(C)(=O)=O)CCO3)n1 [Example 270, N-(6-((2-((5-Bromo-2-methoxy-4-(4-(4-methylpiperazin-1-yl)piperidin-1-yl)phenyl)amino)-5-chloropyrimidin-4-yl)amino)-2,3-dihydrobenzofuran-5-yl)methanesulfonamide] | 500 to 2000
25 to 100 | 100 to 500 | 25 to 100 | 25 to 100 | 100 to 500 | Cc1cc(Nc2ncc(Br)c(Nc3cc(Cl)ccc3NS(C)(=O)=O)n2)c(Cl)cc1N1CCC(N2CCCC(N(C)C)C2)CC1 (stereo not drawn) [Example 98, N-(2-((5-bromo-2-((2-chloro-4-(3-(dimethylamino)-[1,4′-bipiperidin]-1′-yl)-5-methylphenyl)amino)pyrimidin-4-yl)amino)-4-chlorophenyl)methanesulfonamide] | 500 to 2000
1 to 25 | 1 to 25 | 1 to 25 | 1 to 25 | 25 to 100 | CCc1cc(Nc2ncc(Br)c(Nc3ccc4nccnc4c3P(C)(C)=O)n2)c(OC)cc1N1CCC(N2CCN(C)CC2)CC1 [Example 192, (6-((5-bromo-2-((5-ethyl-2-methoxy-4-(4-(4-methylpiperazin-1-yl)piperidin-1-yl)phenyl)amino)pyrimidin-4-yl)amino)quinoxalin-5-yl)dimethylphosphine oxide] | 100 to 500
1 to 25 | 1 to 25 | 100 to 500 | 1 to 25 | 100 to 500 | COc1cc(N2CCC(N3CCN(C)CC3)CC2)c(F)cc1Nc1ncc(Cl)c(Nc2cc3c(cc2NS(C)(=O)=O)CCO3)n1 [Example 222, N-(6-((5-chloro-2-((5-fluoro-2-methoxy-4-(4-(4-methylpiperazin-1-yl)piperidin-1-yl)phenyl)amino)pyrimidin-4-yl)amino)-2,3-dihydrobenzofuran-5-yl)methanesulfonamide] | 2000 to 10000
2000 to 10000 | 1 to 25 | 25 to 100 | 500 to 2000 | 2000 to 10000 | CN1CCN(C2CCN(c3ncc(Nc4ncc(Cl)c(Nc5cc6c(cc5NS(C)(=O)=O)CCO6)n4)cc3F)CC2)CC1 [Example 242, N-(6-((5-chloro-2-((5-fluoro-6-(4-(4-methylpiperazin-1-yl)piperidin-1-yl)pyridin-3-yl)amino)pyrimidin-4-yl)amino)-2,3-dihydrobenzofuran-5-yl)methanesulfonamide] | 2000 to 10000
500 to 2000 | 500 to 2000 | 500 to 2000 | 500 to 2000 | 25 to 100 | COc1nc(N2CCN(CCO)CC2)ccc1Nc1ncc(Cl)c(Nc2ccc(F)cc2NS(C)(=O)=O)n1 [Example 18] | 100 to 500
1 to 25 | 25 to 100 | 1 to 25 | 1 to 25 | 25 to 100 | COc1cc(N2CCC(N3CCN(C)CC3)CC2)c(C)cc1Nc1ncc(Br)c(Nc2cc(Cl)ccc2N(C)S(C)(=O)=O)n1 [Example 155, N-(2-((5-bromo-2-((2-methoxy-5-methyl-4-(4-(4-methylpiperazin-1-yl)piperidin-1-yl)phenyl)amino)pyrimidin-4-yl)amino)-4-chlorophenyl)-N-methylmethanesulfonamide] | 100 to 500
25 to 100 | 25 to 100 | 1 to 25 | 1 to 25 | 100 to 500 | Cc1cc(Nc2ncc(Br)c(Nc3cc4c(cc3N(C)S(C)(=O)=O)CCO4)n2)c(Cl)cc1N1CCC(N2CCN(C)CC2)CC1 [Example 251, N-(6-((5-bromo-2-((2-chloro-5-methyl-4-(4-(4-methylpiperazin-1-yl)piperidin-1-yl)phenyl)amino)pyrimidin-4-yl)amino)-2,3-dihydrobenzofuran-5-yl)-N-methylmethanesulfonamide] | 2000 to 10000
25 to 100 | 25 to 100 | 1 to 25 | 1 to 25 | 500 to 2000 | COc1nc(N2CCC(N3CCN(C)CC3)CC2)c(C)cc1Nc1ncc(Br)c(Nc2cc(Cl)ccc2NS(C)(=O)=O)n1 [Example 86, N-(2-((5-bromo-2-((2-methoxy-5-methyl-6-(4-(4-methylpiperazin-1-yl)piperidin-1-yl)pyridin-3-yl)amino)pyrimidin-4-yl)amino)-4-chlorophenyl)methanesulfonamide] | 2000 to 10000
500 to 2000 | 2000 to 10000 | 500 to 2000 | 25 to 100 | 2000 to 10000 | COc1nc(N2CCN(C3COC3)CC2)ccc1Nc1ncc(Cl)c(Nc2ccc(F)cc2NS(C)(=O)=O)n1 [Example 22, N-(2-((5-chloro-2-((2-methoxy-6-(4-(oxetan-3-yl)piperazin-1-yl)pyridin-3-yl)amino)pyrimidin-4-yl)amino)-5-fluorophenyl)methanesulfonamide] | 500 to 2000
25 to 100 | 100 to 500 | 25 to 100 | 25 to 100 | 500 to 2000 | Cc1cc(Nc2ncc(Br)c(Nc3ccc(F)cc3NS(C)(=O)=O)n2)c(Cl)cc1N1CCC(N2CCCC(N(C)C)C2)CC1 (stereo not drawn) [Example 45] | 500 to 2000
